Results on two substances are retold here after patent US9365851B2, “Spalt-like transcription factor 4 (SALL4) and uses thereof” (National University of Singapore, priority 2011, dated 2016).

One test has as its system HuH-7 cells. Description: Cell viability assay (MTT/MTS). In kind it is cell-based, human. As to conditions: HuH-7, 72 h. The method, then: (§1) Cell viability assay (MTT) (Invitrogen) was performed according to the manufacturer's instructions. Briefly—10000 cells were seeded in 100 ul medium in 96 well plates. The next day cells were treated as indicated on the figures. At the designated time after the treatment 20 ul of 5 mg/ml MTT solution was added to each well. After 3.5 h incubation at 37 C the medium was removed and the reaction was terminated with a solution of 4 mM HCl, 0.1% Nondet P-40 (NP40) all in isopropanol in dark on orbital shaker for […]. at room temperature. The absorbance was read at 590 nm with a reference filter of 620 nm in Spectromax M3 (ABI) spectrophotometer.
Multiple leukemic and solid tumor cancer cell lines with high or low/no SALL4 expression (FIG. 10A) were chosen to test the biological effect(s) of the wild type peptide. Wild type or scrambled peptide was delivered into tumor cells at various concentrations, and their effects on cells were evaluated 72 hours post-treatment by the MTS cell viability assay. […] The effect of wild type peptide is SALL4-specific, as it had no effect on KBM5, an AML cell line with undetectable endogenous SALL4 expression. We were surprised to see that the wild type peptide had no effect on a high SALL4-expressing endometrioid cancer cell line, AN3CA. This prompted checking whether PTEN, a gene repressed by SALL4 through its interaction with NuRD 27, was present in this cell line. According to the model herein, the function of wild type peptide requires both the expression of SALL4 and intact SALL4 downstream target genes, such as PTEN. In tumor cells with PTEN deletion, even though wild type peptide could compete with endogenous SALL4 in interacting with the HDAC complex, an anti-proliferative effect might not be observed. Therefore, expression of PTEN was evaluated in AN3CA cells along with other cell lines. […]
7000 cells were seeded in each wells of a microtiter plate in 100 μL of complete medium. […] After four hours incubation of the tetrazolium salt, absorbance at 490 nm was read by a microplate reader.

Another test relates to PTEN promoter region. Description: ChIP-qPCR of H3 acetylation at the PTEN promoter in SNU-398 cells. The format is cell-based, human. As to conditions: SNU-398, ChIP-qPCR. The text has this:
FIGS. 9A-9E: The wild type peptide blocks SALL4 repression of PTEN. (9A) Flow cytometry analysis on SNU-398 cells treated with Pep-1 carrier peptide alone (top panel), wild type peptide alone (middle panel), or Pep-1 carrier+peptide (lower panel). […] (9B) Confocal images of the distribution of FITC-labeled peptide in SNU-398 cells treated as shown in (9A). (9C) The endogenous SALL4 interaction with HDAC is blocked by wild type (wt) but not scrambled (scr) peptide. SALL4 was immunoprecipitated from SNU-398 nuclear extracts (1×10^6 cells) pre-treated with wild type or scrambled peptides as indicated using an anti-SALL4 antibody. Immunoprecipitates were analyzed by Western blot using HDAC1 (top panel) or SALL4 (lower panel) antibodies. […] Equal amount of SALL4 protein was present in all samples. In Lane 4 (“10% input”), 10% of the amount of nuclear extract used in lanes 1-3 was subjected to Western blot analysis without immunoprecipitation. […] Enrichment with control IgG was set at 1.
Whether this peptide can reverse the repressive effect of SALL4 on its target genes was then tested. Pten was chosen as an example since it is one of genes implicated in SALL4-mediated leukemogenesis. In addition, it was previously reported that SALL4 and NuRD component HDAC2 shared the same binding site at a specific Pten promoter region identified by a ChIP assay. When SALL4 was overexpressed in 293T cells, an enrichment of SALL4 as well as HDAC2 but a decreased H3 acetylation at this binding site were observed, which was correlated with a decreased Pten mRNA expression. It is likely that SALL4 recruits the NuRD complex in repressing Pten expression. If this model of the role of wt peptide is correct, then it could compete with endogenous SALL4 in recruiting NuRD to the binding site on Pten promoter. […] SNU-398 cells were treated with Scr or wt peptide and then evaluated for the Pten mRNA expression, as well as the status of HDAC2 binding and H3 acetylation at the Pten promoter region.
Then tested was whether this peptide could reverse the repressive effect of SALL4 on its target genes. The focus was onPTEN, since it is implicated in SALL4-mediated leukemogenesis (Yang et al., Blood, 112:805-813 (2008); Lu et al., PLoS One, 4:e5577 (2009)). In addition, it was previously reported that SALL4 could specifically bind to the PTEN promoter region in a chromatin immunoprecipitation (ChIP) assay (Lu et al., PLoS One, 4:e5577 (2009)). […] To test this possibility, SNU-398 cells were treated with scrambled or wild type peptide and subsequently evaluated for PTEN expression and H3 acetylation at the SALL4 binding site at the PTEN promoter region. […]
On the technique in general: Quantitative PCR measures a nucleic acid by following its amplification.

For another test, the system named is MCF7 cells. The experiment in a line: Cell viability assay (MTT). As to conditions: MCF7, 48-72 h. In kind it is cell-based. The method, then:
as §1
Multiple cell lines with or without SALL4 expression were chosen to test the biological effect(s) of this wt peptide. Wt or its control (Scr or Mut) peptide was delivered into tumor cells at various concentrations, and their effects on cells were evaluated at 48 or 72 hours post treatment by a MTT assay (Manufacture name). […] Since, as proposed herein, wt peptide can compete with SALL4 and release it from recruiting HDAC complex NuRD, the wt peptide would likely work as a HDAC inhibitor. Therefore, as a positive control, TSA, a broad HDAC inhibitor, was used in the same group of experiments along with the wt and Scr peptide.

Turning to “H-MSRRKQAKPQHI-OH [wt peptide, MSRRKQAKPQHI]”, the cell viability result with HuH-7 cells is reported as “reduced the cell viability”; with HuH-7 cells (listed as wild type peptide) it was “decreased cell viability”; with MCF7 cells, “decreased cell viability”; in the test on MCF7 cells (listed as wild type peptide) it was “displayed the same effect”. Besides, the figures for the “H3 acetylation at the PTEN promoter region” value in the test on PTEN promoter region (listed as Wild type peptide), in the test with PTEN promoter region (listed as Wt) and with PTEN promoter region (listed as wild type peptide) were “increased H3 acetylation”, “increased H3 acetylation” and “increased H3 acetylation markers”, respectively.

With “Scr peptide: same 12 amino acids as the wt peptide, but in a scrambled sequence; negative control (SRMRQKIHPKIQ) [reference compound]”, the cell viability result in the test on HuH-7 cells and in the test with MCF7 cells was “remained unaffected” in each case. Further, the “H3 acetylation at the PTEN promoter region” value in the test on PTEN promoter region is “not observed”.
